Compound: CCN1CCC(CC1)N2C=C(N=N2)CNC3=CC4=C(C(=CN=C4C(=C3)Cl)C#N)NC5=CC(=C(C=C5)F)Cl [KIN001-266]
Assay: relative viability (nuclei count vs DMSO), 5 days (fraction); higher = more cells survive
Summary of the method: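 Viability was read as treated-well nuclei divided by vehicle-well nuclei, using the median across plates. Lung cancer cell lines in 1536-well plates were kept overnight at 37 °C, pinned with five √10-spaced library-drug doses, and after 5 days were Hoechst-stained, imaged at 4× and counted in MetaXpress. Plates passed only with control CV below 25% and at least one doubling.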

NCI-H661
relative viability (0.08 µM): 0.956 | relative viability (0.253 µM): 0.997 | relative viability (0.8 µM): 1.01 | relative viability (2.53 µM): 0.958 | relative viability (8 µM): 1.01

NCI-H727
relative viability (0.08 µM): 1.03 | relative viability (0.253 µM): 0.966 | relative viability (0.8 µM): 0.843 | relative viability (2.53 µM): 0.904 | relative viability (8 µM): 0.656

NCI-H838
relative viability (0.08 µM): 0.935 | relative viability (0.253 µM): 0.967 | relative viability (0.8 µM): 0.961 | relative viability (2.53 µM): 0.949 | relative viability (8 µM): 0.829

NCI-H1299
relative viability (0.08 µM): 0.987 | relative viability (0.253 µM): 0.996 | relative viability (0.8 µM): 1 | relative viability (2.53 µM): 0.928 | relative viability (8 µM): 0.869

NCI-H1355
relative viability (0.08 µM): 0.986 | relative viability (0.253 µM): 1.02 | relative viability (0.8 µM): 0.979 | relative viability (2.53 µM): 0.924 | relative viability (8 µM): 0.908

NCI-H1395
relative viability (0.08 µM): 0.948 | relative viability (0.253 µM): 0.974 | relative viability (0.8 µM): 1.14 | relative viability (2.53 µM): 0.892 | relative viability (8 µM): 0.844

NCI-H1437
relative viability (0.08 µM): 0.976 | relative viability (0.253 µM): 0.988 | relative viability (0.8 µM): 1.02 | relative viability (2.53 µM): 0.994 | relative viability (8 µM): 0.883

NCI-H1563
relative viability (0.08 µM): 0.958 | relative viability (0.253 µM): 1 | relative viability (0.8 µM): 1.02 | relative viability (2.53 µM): 1.04 | relative viability (8 µM): 0.972

NCI-H1648
relative viability (0.08 µM): 0.853 | relative viability (0.253 µM): 0.859 | relative viability (0.8 µM): 0.893 | relative viability (2.53 µM): 0.823 | relative viability (8 µM): 0.966

NCI-H1650
relative viability (0.08 µM): 0.964 | relative viability (0.253 µM): 1.01 | relative viability (0.8 µM): 0.895 | relative viability (2.53 µM): 0.805 | relative viability (8 µM): 0.464

NCI-H1651
relative viability (0.08 µM): 0.955 | relative viability (0.253 µM): 1.01 | relative viability (0.8 µM): 0.957 | relative viability (2.53 µM): 1.01 | relative viability (8 µM): 0.96

NCI-H1666
relative viability (0.08 µM): 1.07 | relative viability (0.253 µM): 1 | relative viability (0.8 µM): 0.896 | relative viability (2.53 µM): 0.99 | relative viability (8 µM): 0.959

NCI-H1703
relative viability (0.08 µM): 1.06 | relative viability (0.253 µM): 0.873 | relative viability (0.8 µM): 0.954 | relative viability (2.53 µM): 0.789 | relative viability (8 µM): 0.806

NCI-H1734
relative viability (0.08 µM): 1.01 | relative viability (0.253 µM): 1.01 | relative viability (0.8 µM): 1.08 | relative viability (2.53 µM): 0.858 | relative viability (8 µM): 0.855

NCI-H1755
relative viability (0.08 µM): 0.968 | relative viability (0.253 µM): 0.994 | relative viability (0.8 µM): 0.995 | relative viability (2.53 µM): 0.975 | relative viability (8 µM): 0.96

NCI-H1792
relative viability (0.08 µM): 0.987 | relative viability (0.253 µM): 0.919 | relative viability (0.8 µM): 0.856 | relative viability (2.53 µM): 0.908 | relative viability (8 µM): 1.01

NCI-H1793
relative viability (0.08 µM): 1.04 | relative viability (0.253 µM): 0.865 | relative viability (0.8 µM): 0.617 | relative viability (2.53 µM): 0.787 | relative viability (8 µM): 0.606

NCI-H1915
relative viability (0.08 µM): 1.02 | relative viability (0.253 µM): 0.971 | relative viability (0.8 µM): 0.982 | relative viability (2.53 µM): 1.07 | relative viability (8 µM): 0.935

NCI-H1944
relative viability (0.08 µM): 1.07 | relative viability (0.253 µM): 0.972 | relative viability (0.8 µM): 0.919 | relative viability (2.53 µM): 1.02 | relative viability (8 µM): 0.974

NCI-H1975
relative viability (0.08 µM): 0.989 | relative viability (0.253 µM): 0.97 | relative viability (0.8 µM): 0.966 | relative viability (2.53 µM): 1.03 | relative viability (8 µM): 0.965

NCI-H1993
relative viability (0.08 µM): 0.971 | relative viability (0.253 µM): 0.916 | relative viability (0.8 µM): 0.815 | relative viability (2.53 µM): 0.81 | relative viability (8 µM): 0.724

NCI-H2009
relative viability (0.08 µM): 0.988 | relative viability (0.253 µM): 1.06 | relative viability (0.8 µM): 1 | relative viability (2.53 µM): 0.982 | relative viability (8 µM): 0.856

NCI-H2023
relative viability (0.08 µM): 0.915 | relative viability (0.253 µM): 0.997 | relative viability (0.8 µM): 1.15 | relative viability (2.53 µM): 0.926 | relative viability (8 µM): 0.94

NCI-H2085
relative viability (0.08 µM): 1 | relative viability (0.253 µM): 1.04 | relative viability (0.8 µM): 0.865 | relative viability (2.53 µM): 0.973 | relative viability (8 µM): 0.777

NCI-H2087
relative viability (0.08 µM): 0.957 | relative viability (0.253 µM): 1.03 | relative viability (0.8 µM): 0.94 | relative viability (2.53 µM): 1.06 | relative viability (8 µM): 0.786

NCI-H2126
relative viability (0.08 µM): 1.01 | relative viability (0.253 µM): 1.03 | relative viability (0.8 µM): 0.978 | relative viability (2.53 µM): 0.925 | relative viability (8 µM): 0.975

NCI-H2170
relative viability (0.08 µM): 1 | relative viability (0.253 µM): 0.995 | relative viability (0.8 µM): 0.979 | relative viability (2.53 µM): 0.935 | relative viability (8 µM): 1.01

NCI-H2228
relative viability (0.08 µM): 1.03 | relative viability (0.253 µM): 1.02 | relative viability (0.8 µM): 1.02 | relative viability (2.53 µM): 0.903 | relative viability (8 µM): 0.808

NCI-H2342
relative viability (0.08 µM): 1.02 | relative viability (0.253 µM): 0.971 | relative viability (0.8 µM): 0.958 | relative viability (2.53 µM): 0.965 | relative viability (8 µM): 1.1

NCI-H2347
relative viability (0.08 µM): 1.04 | relative viability (0.253 µM): 1 | relative viability (0.8 µM): 1 | relative viability (2.53 µM): 0.989 | relative viability (8 µM): 0.582

NCI-H2405
relative viability (0.08 µM): 1.03 | relative viability (0.253 µM): 1.02 | relative viability (0.8 µM): 0.977 | relative viability (2.53 µM): 0.958 | relative viability (8 µM): 0.821

NCI-H3122
relative viability (0.08 µM): 0.967 | relative viability (0.253 µM): 1.02 | relative viability (0.8 µM): 1.01 | relative viability (2.53 µM): 0.919 | relative viability (8 µM): 0.95

PC-3 [JPC-3]
relative viability (0.08 µM): 1 | relative viability (0.253 µM): 1.06 | relative viability (0.8 µM): 0.916 | relative viability (2.53 µM): 1.03 | relative viability (8 µM): 0.859

PC-14
relative viability (0.08 µM): 0.933 | relative viability (0.253 µM): 1.07 | relative viability (0.8 µM): 0.84 | relative viability (2.53 µM): 0.885 | relative viability (8 µM): 0.485

RERF-LC-KJ
relative viability (0.08 µM): 1.05 | relative viability (0.253 µM): 1.04 | relative viability (0.8 µM): 0.975 | relative viability (2.53 µM): 0.992 | relative viability (8 µM): 0.726

SK-LU-1
relative viability (0.08 µM): 1.09 | relative viability (0.253 µM): 1 | relative viability (0.8 µM): 0.987 | relative viability (2.53 µM): 0.886 | relative viability (8 µM): 0.709

SK-MES-1
relative viability (0.08 µM): 1.02 | relative viability (0.253 µM): 1.02 | relative viability (0.8 µM): 0.992 | relative viability (2.53 µM): 0.942 | relative viability (8 µM): 0.783

SW 900
relative viability (0.08 µM): 1.02 | relative viability (0.253 µM): 0.873 | relative viability (0.8 µM): 0.777 | relative viability (2.53 µM): 0.848 | relative viability (8 µM): 0.624

SW 1573
relative viability (0.08 µM): 1.07 | relative viability (0.253 µM): 0.899 | relative viability (0.8 µM): 1.04 | relative viability (2.53 µM): 0.924 | relative viability (8 µM): 0.689

UMC-11
relative viability (0.08 µM): 0.975 | relative viability (0.253 µM): 0.981 | relative viability (0.8 µM): 1 | relative viability (2.53 µM): 0.918 | relative viability (8 µM): 0.857
